Assay results as given in US20230414776A1, “Small Molecule-Nanobody Conjugate Inducers of Proximity (SNACIP) and Preparation Methods and Use thereof” (Harbin Institute of Technology, priority 2022, published 2023).

What was measured:
Assay type in all cases: cell-based
[1] = tested on: mEYFP; experiment: Regulation of GFP mutant mEYFP localization; details: TMP 10 μM, 10 min
Text: Yellow fluorescent protein mEYFP and turquoise fluorescent protein mTurquoise2 are close mutants of the GFP. […] This is an interesting phenomenon, but can also be reasonably explained: Asn146 in GFP, a residue that has a key hydrogen-bonding interaction with the Asn99 residue of GBP, is retained in EGFP and mEYFP, but is mutated to Ile146 in mTurquoise2. […] Therefore, cRGT is an all-rounder, can regulate the proteins of interest to which EGFP, mEYFP and eDHFR are fused, and also has good orthogonality to other fluorescent proteins.

[2] = tested on: EGFP in HeLa cells; experiment: Localization of EGFP to subcellular structures; details: TMP 10 μM, 10 min
Procedure: Treatment of living cells with an SNACIP inducer of dimerization for microscopic imaging: Unless otherwise specified, first a DMEM complete medium of the cells is replaced with a phenol red-free imaging medium of the SNACIP inducer of dimerization of the corresponding concentration, and then imaging is performed after incubation for a given period of time. For cRGT, the concentration represents an effective ratio of cRGT; and near-complete dimerization regulation may be achieved without washing off excess cRGT before imaging.
Many cellular processes are regulated by dynamic distribution of proteins in the cell.

[3] = tested on: Rac1; experiment: Rac1 localization to plasma membrane and lamellipodia formation by cRGT
Text: A constitutively active mutant EGFP-NES-Rac1Q61LΔCAAX (G-NES-Rac1 for short, green, cytoplasmic distribution) without the plasma membrane targeting ability and lacking the CAAX-box sequence and mCherry-eDHFR-CAAX (red, plasma membrane localized), being co-expressed in living HeLa cells; treatment of the HeLa cells with cRGT will localize the Rac1 mutant to the functional location of the plasma membrane, which in turn induces a signaling cascade process during lamellipodia formation. Confocal micrographs of representative living HeLa cells co-expressing G-NES-Rac1 and mCherry-eDHFR-CAAX, before treatment with cRGT (Pre), after treatment with 24 μM cRGT, and after addition of TMP at a final concentration of 10 μM. Statistical analysis of colocalization between the EGFP channel and the mCherry channel by PCC were shown. Statistical analysis of cell areas before treatment with cRGT (Pre), after treatment with 24 μM cRGT, and after treatment with TMP at a final concentration of 10 μM was also shown. […] Curve comparison of streak analysis of cells after dimerization induced by cRGT and TMP-Cl. […] Abbreviations in the pictures: mCherry is abbreviated as mChe or R; EGFP is abbreviated as G; mTurquoise2 is abbreviated as mTurq or C; eDHFR is abbreviated as ED; HaloTag is abbreviated as HT. All scales: 10 μm. […]

[4] = tested on: eDHFR and HaloTag; experiment: TMP-Cl induced targeting of Rac1 to plasma membrane (eDHFR/HaloTag); details: TMP-Cl 10 μM, 1 h, excess washed off 30 min, HeLa

Row | SMILES | reversal of mEYFP localization [1] | reversal of Golgi localization [2] | reversal of mitochondrial localization [2] | reversal of Rac1 localization and morphology change ([3]; 10 μM TMP) | average area of cells after TMP addition ([3]; 10 μM TMP after cRGT) | PCC of colocalization [4]
1 | COc1cc(Cc2cnc(N)nc2N)cc(OC)c1OC [TMP, trimethoprim] | rapidly reversible | also rapidly reversible | rapidly reversible | completely reversed | decreased significantly | –
2 | COc1cc(Cc2cnc(N)nc2N)cc(OC)c1OCCOCCOCCOCCOCCOCCCCCCCl [TMP-Cl] | – | – | – | – | – | around 0.7
